PMC2801564 (Chemistry & biology, 2009)

Molecular target: T1, cathepsin L (CatL) (Ixodes ricinus, UniProt A4GTA6)
T1 sequence (A4GTA6 119-335): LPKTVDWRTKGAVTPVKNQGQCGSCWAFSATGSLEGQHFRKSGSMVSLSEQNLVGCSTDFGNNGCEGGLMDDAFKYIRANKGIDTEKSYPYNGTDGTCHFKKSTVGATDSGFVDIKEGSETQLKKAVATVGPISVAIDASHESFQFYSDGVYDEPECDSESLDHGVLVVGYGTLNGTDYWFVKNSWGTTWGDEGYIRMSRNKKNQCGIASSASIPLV
Test: fluorimetric inhibition assay in gut extract
Type: biochemical
Details: DTT; pH optimum; 35 °C; covalent

CC(C)C[C@H](NC(=O)[C@H]1O[C@@H]1C(=O)O)C(=O)NCCCCNC(=N)N [E-64] was tested, and the “% inhibition” value was “insensitive to E-64 (in contrast to cathepsins B, L and C)”.
